Source: patent US4510140A, “Therapeutically effective ω-(4-(2-pyridyl)-piperazino)-alkanoylanilides” (priority 1981, dated 1985)
Where two headings read alike, the source gives them in different places.

What was measured:
[1] = tested on: passive cutaneous anaphylaxis; assay: PCA Test: passive cutaneous anaphylaxis induced in the rat with homologous antibodies (Goose and Blair); inhibition of spot areas; format: in vivo; conditions: read-out: PCA Test - ED50 (inhibition of spot areas)
Protocol: In order to evaluate the antianaphylactic activity of the subject novel compounds, the method of Goose and Blair was followed, in which passive cutaneous anaphylaxis was induced in the rat with homologous antibodies [Immunology, 16, 749 (1969)]. Female albino rats were immunized intramuscularly with egg albumin and intraperitoneally with Hemophylus pertussis vaccine.
Twelve days after treatment, the animals were bled and the sera thus obtained were injected intradermally into another group of rats. Twenty-four hours later, the animals were challenged with an i.v. solution of ovoalbumin and Evans blue dye, and sacrificed after 30 minutes. The test drugs were administered by different routes of administration and at different times before the challenge. Inhibition of spot areas (ED50) was determined.

[2] = LD50 determined in the mouse (C. S. Weil method); set-up: unit not given here; conditions: in vivo
From the text: Accordingly, the present invention also features pharmaceutical compositions comprising a pharmaceutically effective amount of a compound having the structural formula (I) as above-defined, or a pharmaceutically acceptable salt thereof, in admixture with conventional pharmaceutically acceptable dileunt or carrier. Suitable such carriers and unit dosage amounts will be apparent to those skilled in this art. Compare, for example, Remington's Pharmaceutical Sciences, 4th Edition (1970). The LD50 of the alkanoylanilides according to the invention was determined in the mouse, both in C. S. Weil, following the method describedBiometrics, 8, 249 (1952). The results obtained were as follows, with the designating for the active compounds corresponding to those set forth in the following specific examples: […]

[3] = tested on: bronchospasm induced by histamine; assay: Antibronchospastic activity (Konzett and Rossler): inhibition of bronchospasm induced in anaesthetized guinea-pig by histamine; format: in vivo; conditions: Cavia porcellus, iv, 1 min, read-out: ED75 (inhibition of histamine-induced bronchospasm)
Protocol: The antibronchospastic activity was determined according to the method of Konzett and Rossler [Arch. exp. Path. Pharmakol., 195, 71 (1940)], determining the inhibition of bronchospasm induced in anaesthetized guinea-pig by histamine. For this purpose, the bronchospasms were induced by administering intravenously to the animals 0.5-2.5 μg/Kg of hystamine. Inhibition (ED75) was determined one minute after the injection of the drug under test, and the results obtained are reported in the following Table III: […]

[4] = anaesthetized guinea-pig, i.v., histamine 0.5-2.5 μg/Kg i.v., one minute after injection of the drug

SMILES | ED50 ([1]; Rattus norvegicus, ip) [µmol/kg] | ED50 ([1]; Rattus norvegicus, po) [µmol/kg] | LD50 ([2]; ip) | LD50 ([2]; po, os) | ED75 [3] [µmol/kg] | ED50 ([1]; po, rat, os) [µmol/kg] | ED50 ([1]; rat, ip) [µmol/kg] | ED75 [3, 4] [µmol/kg]
CCOC(=O)c1ccc(NC(=O)CCN2CCN(c3ccccn3)CC2)cc1 [compound 41] | 220 | 28 | 0.66 | 0.92 | 0.17 |  |  | 
O=C(CCN1CCN(c2ccccn2)CC1)Nc1ccc(O)c([N+](=O)[O-])c1 [compound 21] | 270 | 160 | 2.38 | 3.74 | 1.1 |  |  | 
Cc1ccccc1NC(=O)CCN1CCN(c2ccccn2)CC1 [compound 17] |  | 67 | 1.01 | 1.58 | 0.47 |  |  | 
Nc1ccc(NC(=O)CCN2CCN(c3ccccn3)CC2)cc1 [compound 7] | 27 | 74 | 1.11 | 1.29 | 0.02 |  |  | 
O=C(CCN1CCN(c2ccccn2)CC1)Nc1ccc(Cl)cc1 [compound 35] |  | 39 | 0.62 | 0.96 | 2.27 |  |  | 
O=C(CCN1CCN(c2ccccn2)CC1)Nc1c(Cl)cccc1Cl [compound 36] |  | 29 | 0.8 | 1.24 | 0.4 |  |  | 
O=C(CCN1CCN(c2ccccn2)CC1)Nc1ccccc1[N+](=O)[O-] [compound 29] |  |  | 2.08 | 3.7 | 0.58 |  |  | 
CC1CN(c2ccccn2)CCN1CCC(=O)Nc1ccc(N)cc1 (stereo not shown) [compound 24] |  | 39 | 1.18 | 2.97 | 0.59 |  |  | 
Cc1cccc(C)c1NC(=O)CN1CCN(c2ccccn2)CC1 [compound 1] | 337 |  | 0.9 |  |  |  |  | 
O=C(CCN1CCN(c2ccccn2)CC1)Nc1ccc([N+](=O)[O-])cc1 [compound 6] | 27 |  | 0.47 | 0.81 | 0.94 |  |  | 
CCOc1ccc(NC(=O)CCN2CCN(c3ccccn3)CC2)cc1 [compound 19] |  | 54 | 0.69 | 0.92 | 0.14 |  |  | 
N#Cc1ccc(NC(=O)CCN2CCN(c3ccccn3)CC2)cc1 [compound 43] |  |  | 0.39 | 0.62 |  |  |  | 
O=C(CCN1CCN(c2ccccn2)CC1)Nc1ccccc1 [compound 16] | 64 | 61 | 1.16 | 1.35 | 1.93 |  |  | 
CC(=O)c1ccccc1NC(=O)CCN1CCN(c2ccccn2)CC1 [compound 39] |  | 73 | 2.3 | > 6.91 | 0.89 |  |  | 
COc1ccc(NC(=O)CCN2CCN(c3ccccn3)CC2)cc1 [compound 3] | 19 |  | 0.71 | 1.16 | 0.24 |  |  | 
O=C(CCN1CCN(c2ccccn2)CC1)Nc1ccc(O)cc1 [compound 20] |  |  | > 2.5 | 5.2 |  | 170 | 120 | 0.49
CC(=O)c1ccc(NC(=O)CCN2CCN(c3ccccn3)CC2)cc1 [compound 13] | 104 |  | 0.48 | 1.5 | 0.02 |  |  | 
COc1cccc(N2CCN(CCC(=O)Nc3ccc([N+](=O)[O-])cc3)CC2)n1 [compound 31] |  | 130 |  | 4.39 |  |  |  | 
O=C(CCN1CCN(c2ccccn2)CC1)Nc1cc([N+](=O)[O-])cc([N+](=O)[O-])c1 [compound 32] |  |  |  | 1.57 | 2.4 |  |  | 
O=C(CCN1CCN(c2ccccn2)CC1)Nc1ccccc1Cl [compound 33] | 151 | 47 | 1.29 | 2.64 | 1.12 |  |  | 

SMILES | ED50 ([1]; Rattus norvegicus, ip) [µmol/kg] | ED50 ([1]; Rattus norvegicus, po) [µmol/kg] | LD50 ([2]; ip) | LD50 ([2]; po, os) | ED75 [3] [µmol/kg] | ED50 ([1]; po, rat, os) [µmol/kg] | ED50 ([1]; rat, ip) [µmol/kg] | ED75 [3, 4] [µmol/kg]
COc1cccc(N2CCN(CCC(=O)Nc3ccccc3N)CC2)n1 [compound 38] |  | 44 | 0.37 | 0.67 |  |  |  | 
Nc1cccc(NC(=O)CCN2CCN(c3ccccn3)CC2)c1 [compound 23] |  | 170 | 0.9 | 0.85 | 0.61 |  |  | 
CNC(=O)Nc1ccc(NC(=O)CCN2CCN(c3ccccn3)CC2)cc1 [compound 28] |  |  | > 2.15 | > 6.5 |  | 73 |  | 0.29
CSc1ccc(NC(=O)CCN2CCN(c3ccccn3)CC2)cc1 [compound 42] |  |  |  | > 8.4 |  |  |  | 
CC(O)c1ccc(NC(=O)CCN2CCN(c3ccccn3)CC2)cc1 (stereo not shown) [compound 14] | 32 | 106 | 3.25 | 5.97 | 0.48 |  |  | 
Cc1cc(C)c(C)c(NC(=O)CN2CCN(c3ccccn3)CC2)c1C [compound 2] | 212 |  | 0.65 |  |  |  |  | 
CC1CN(c2ccccn2)CCN1CCC(=O)Nc1ccc([N+](=O)[O-])cc1 (stereo not shown) [compound 30] |  | 230 | 0.42 | 1.2 | 1.75 |  |  | 
CCOC(=O)C(=O)Nc1ccc(NC(=O)CCN2CCN(c3ccccn3)CC2)cc1 [compound 12] |  |  | > 2.35 | > 7.05 |  | 180 | 130 | 0.23
Nc1ccccc1NC(=O)CCN1CCN(c2ccccn2)CC1 [compound 22] |  | 100 | 3.2 | 2.08 | 1.63 |  |  | 
CC(=O)Nc1ccc(NC(=O)CCN2CCN(c3ccccn3)CC2)cc1 [compound 27] |  |  |  | > 6.81 |  | 92 | 120 | 0.97
O=C(CCN1CCN(c2ccccn2)CC1)Nc1cccc(C(F)(F)F)c1 [compound 37] |  |  | 0.56 | 1.17 |  |  |  | 
O=C(CCN1CCN(c2ccccn2)CC1)Nc1ccc(NC(=O)Nc2ccccc2)cc1 [compound 8] |  |  | > 2.25 | > 6.7 |  |  |  | 
Cc1cccc(C)c1NC(=O)CCN1CCN(c2ccccn2)CC1 [compound 18] | 81 | 13 | 0.8 |  | 1.57 |  |  | 
COc1cccc(N2CCN(CCC(=O)Nc3ccc(N)cc3)CC2)n1 [compound 25] | 110 | 55 | 0.53 | 1.6 | 0.4 |  |  | 
COc1cccc(N2CCN(CCC(=O)Nc3ccccc3[N+](=O)[O-])CC2)n1 [compound 34] |  |  |  | > 7.1 |  |  |  | 
CC(=O)c1ccc(OCc2ccccc2)c(NC(=O)CCN2CCN(c3ccccn3)CC2)c1 [compound 5] | 89 |  | 0.91 | 1.21 | 3.89 |  |  | 
Cc1cc(C)c(C)c(NC(=O)CCN2CCN(c3ccccn3)CC2)c1C [compound 15] | 19 | 26 | 0.57 |  | 1.56 |  |  | 
CC(=O)c1cccc(NC(=O)CCN2CCN(c3ccccn3)CC2)c1 [compound 40] |  | 73 | 0.68 | 1.11 | 0.2 |  |  | 
CCC(=O)Nc1ccc(NC(=O)CCN2CCN(c3ccccn3)CC2)cc1 [compound 11] | 160 |  | 1.05 | 1.53 | 0.23 |  |  | 
O=C(CCN1CCN(c2ccccn2)CC1)Nc1cccc([N+](=O)[O-])c1 [compound 4] | 56 | 68 | 0.42 | 2.07 | 0.37 |  |  | 
